Test results published in patent publication US12421212B2, “Substituted benzenecarboxamides as IL-17A modulators” (DiCE Alpha, Inc., priority 2019, dated 2025).

Molecular target: T1, IL-17A/A (Homo sapiens, UniProt Q16552)
T1 construct: purchased Genscript Z03228
T1 sequence (Q16552 24-155): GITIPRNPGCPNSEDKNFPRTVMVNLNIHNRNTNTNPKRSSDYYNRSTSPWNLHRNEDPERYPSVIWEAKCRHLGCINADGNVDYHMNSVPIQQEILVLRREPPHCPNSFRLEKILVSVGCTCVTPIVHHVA
Experiment: IL-17A/A HEK-Blue Cell Assay
Assay type: cell-based
Conditions: HEK-Blue IL-17A reporter cell line, SEAP readout at A630, 20 hours incubation with IL-17A/A, top concentration 10 uM, 1 uM or 0.3 uM; for IC50: read-out: IL-17A/A inhibition (pIC50) (converted)
Method: The HEK-Blue IL-17A reporter cell line (Fisher #NC1408637) was used for cell-based IL-17A/A inhibition assays. Cells were grown and prepared for assays according to the manufacturer's instructions. This cell line consists of HEK 293 cells that were designed to expressed IL-17RA, IL-17RC, and the ActI adapter molecule, the combination of which, when stimulated by IL-17A/A activates a NFκB promoter and drives expression of a recombinant Secreted Alkaline Phosphatase (SEAP) geneprotein. Media from the cells is then added to a development reagent (Quanti-Blue Substrate, Fisher #NC9711613), and read at A630.
Compounds were titrated in DMSO, with a top final compound concentration of 10 uM, 1 uM, or 0.3 uM, and added to the cells immediately before adding IL-17A/A (Genscript #Z03228). The cells, compound, and IL-17A/A were then incubated for 20 hours before media was removed for SEAP analysis. The resulting inhibition curve was then analyzed using Graphpad Prism 7.0, and IC50 values were determined using a 4-parameter nonlinear fit. DMSO was added to a universal final concentration of 0.1% to optimize background.

IC50 [nM] | SMILES | IL-17A/A inhibition (pIC50)
100 to 10000 | CCC(=O)N[C@H](Cc1ccc(NC(=O)[C@@H](NC(=O)c2ccnn2CC)[C@@H](C)c2ccccc2)c(F)c1)C(=O)N1CCN(C)CC1 [Compound 647] | –
10 to 100 | CCC(=O)N[C@@H](C(=O)N[C@@H](C)C1CC1)[C@@H](C)c1ccc(NC(=O)[C@@H](NC(=O)c2ccnn2CC)[C@H]2CC[C@H](C)CC2)c(F)c1 [Compound 344] | –
100 to 10000 | CCC(=O)NC(Cc1ccc(NC(=O)[C@@H](NC(=O)c2ccnn2CC)C2CCCCC2)c(F)c1)C(=O)N1CCN2CCOCC2C1 (some centres unmarked) [Compound 693] | –
10 to 100 | CCc1nonc1C(=O)N[C@H](C(=O)Nc1ccc([C@H](C)[C@@H](NC(=O)c2cccnc2OC)C(=O)N2CCN(C)CC2)cc1F)[C@H]1CC[C@H](C)CC1 [Compound 576] | –
100 to 10000 | CCC(=O)N[C@H](Cc1ccc(NC(=O)[C@@H](NC(=O)c2conc2CC)[C@H]2CC[C@H](C)CC2)c(F)c1)C(=O)N1CCN(C)CC1 [Compound 630] | –
– | CCC(=O)N[C@H](Cc1ccc(NC(=O)[C@@H](NC(=O)C(C)(C)c2ccccc2)C2CCCCC2)c(F)c1)C(=O)N1CCN(C)CC1 [Compound 709] | X2b (compounds were evaluated up to 1 uM and inhibited activity at 1 uM by less than 20%)
10 to 100 | CCc1nonc1C(=O)N[C@H](C(=O)Nc1ccc([C@H](C)[C@@H](NS(=O)(=O)CC)C(=O)N2CCN(C)CC2)cc1F)[C@H]1CC[C@H](C)CC1 [Compound 518] | –
– | CCC(=O)N[C@@H](C(=O)N1CCN(C)CC1)[C@@H](C)c1ccc(NC(=O)C(NC(=O)c2nonc2CC)C(CC)c2ccc(Cl)cc2)c(F)c1 (single isomer, unassigned) [Compound 564] | X2a (compounds were evaluated up to 1 uM and did not inhibit activity by >80%, however they showed some activity at 1 uM (less than 80% and more than 20%))
100 to 10000 | CCC(=O)N[C@H](Cc1ccc(NC(=O)[C@@H](NC(=O)c2conc2CNC(C)=O)C2CCCCC2)c(F)c1)C(=O)N1CCN(C)CC1 [Compound 764] | –
10 to 100 | CCC(=O)N[C@@H](C(=O)N1CCN(C)CC1)[C@@H](C)c1ccc(NC(=O)C(NC(=O)C(F)(F)c2cccc(C#N)c2)C2CCCC2)c(F)c1 (some centres unmarked) [Compound 292] | –
< 10 | CCc1nonc1C(=O)N[C@H](C(=O)Nc1ccc([C@H](C)[C@@H](NC(=O)N(C)C2CC2)C(=O)N2CCN(C)CC2)cc1F)[C@H]1CC[C@H](C)CC1 [Compound 513] | –
10 to 100 | CCn1nccc1C(=O)N[C@H](C(=O)Nc1ccc([C@H](C)[C@@H](NS(=O)(=O)CC)C(=O)N2CCN(C)CC2)cc1F)[C@H]1CC[C@H](C)CC1 [Compound 485] | –
< 10 | CCC(=O)N[C@@H](C(=O)N1CCN(C)CC1)[C@@H](C)c1ccc(NC(=O)[C@@H](NC(=O)c2cccn2C(C)C)C2CCCCCC2)c(F)c1 [Compound 274] | –
< 10 | CCC(=O)N[C@@H](C(=O)N1CCN(CC)[C@H](C)C1)[C@@H](C)c1ccc(NC(=O)[C@@H](NC(=O)c2ccnn2CC)[C@H]2CC[C@H](C)CC2)c(F)c1 [Compound 426] | –
100 to 10000 | CCC(=O)N[C@H](Cc1ccc(NC(=O)[C@@H](NC(=O)C(F)(F)c2ccc(OC)nc2)C2CCCCC2)c(F)c1)C(=O)N1CCN(C)CC1 [Compound 203] | –
– | CCC(=O)N[C@H](Cc1ccc(NC(=O)[C@@H](NC(=O)c2ccnn2CC)C2CCCCC2)c(F)c1)C(=O)NCCO [Compound 752] | X2b (compounds were evaluated up to 1 uM and inhibited activity at 1 uM by less than 20%)
< 10 | CCC(=O)N[C@@H](C(=O)N1CCN(C)CC1)[C@@H](C)c1ccc(NC(=O)[C@@H](NC(=O)c2conc2CC)C2CCCCCC2)c(F)c1 [Compound 257] | –
100 to 10000 | CCC(=O)N[C@H](Cc1ccc(NC(=O)[C@@H](NC(=O)c2ccnn2CC(F)(F)F)C2CCCCC2)c(F)c1)C(=O)N1CCN(C)CC1 [Compound 648] | –
10 to 100 | CCn1nccc1C(=O)N[C@H](C(=O)Nc1ccc([C@H](C)C(NC(=O)C(C)F)C(=O)N2CCN(C)[C@@H](C)C2)cc1F)[C@H]1CC[C@H](C)CC1 (single isomer, unassigned) [Compound 592] | –
100 to 10000 | CCC(=O)N[C@H](Cc1ccc(NC(=O)[C@@H](NC(=O)C(F)(F)c2cccnc2)C2CCCCC2)c(F)c1)C(=O)N1CCN(C)CC1 [Compound 205] | –
10 to 100 | CCn1nccc1C(=O)N[C@H](C(=O)Nc1ccc([C@H](C)[C@@H](NC(=O)[C@@H](C)F)C(=O)N2CCN(C)CC2)cc1F)[C@H]1CC[C@H](C)CC1 [Compound 470] | –

IC50 [nM] | SMILES | IL-17A/A inhibition (pIC50)
10 to 100 | CCC(=O)N[C@@H](C(=O)N1CCC(C)CC1)[C@@H](C)c1ccc(NC(=O)[C@@H](NC(=O)c2ccnn2C2CCCC2)[C@H]2CC[C@H](C)CC2)c(F)c1 [Compound 375] | –
10 to 100 | CCC(=O)N[C@@H](C(=O)N1CCN(C)CC1)[C@@H](C)c1ccc(NC(=O)C(NC(=O)c2ccnn2CC)C(CC)c2ccc(Cl)cc2)c(F)c1 (single isomer, unassigned) [Compound 562] | –
10 to 100 | CCc1nonc1C(=O)N[C@H](C(=O)Nc1ccc([C@H](C)[C@@H](NC(=O)C(C)(C)F)C(=O)N2CCN(C)CC2)cc1F)[C@H]1CC[C@H](C)CC1 [Compound 495] | –
– | CCC(=O)N[C@H](C(=O)N1CCN(C)CC1)[C@@H](C)c1ccc(NC(=O)[C@@H](NC(=O)c2ccnn2CC)[C@H]2CC[C@H](C)CC2)c(F)c1 [Compound 543] | X3b (compounds were evaluated up to 0.3 uM and inhibited activity at 0.3 uM by less than 20%)
– | CCC(=O)N[C@H](Cc1ccc(NC(=O)[C@@H](Nc2nccn3nccc23)C2CCCCC2)c(F)c1)C(=O)N1CCN(C)CC1 [Compound 540] | X2b (compounds were evaluated up to 1 uM and inhibited activity at 1 uM by less than 20%)
– | CCC(=O)N[C@@H](C(=O)N1CCN(C)CC1)[C@@H](C)c1ccc(NC(=O)[C@@H](NC(=O)C(F)(F)C2CCN(CCO)CC2)C2CCCCC2)c(F)c1 [Compound 735] | X2a (compounds were evaluated up to 1 uM and did not inhibit activity by >80%, however they showed some activity at 1 uM (less than 80% and more than 20%))
– | CCn1nccc1C(=O)N[C@H](C(=O)Nc1ccc(C[C@@H](NC(=O)c2cn(C)cn2)C(=O)N2CCN(C)CC2)cc1F)C1CCCCC1 [Compound 702] | X2b (compounds were evaluated up to 1 uM and inhibited activity at 1 uM by less than 20%)
100 to 10000 | CCC(=O)N[C@@H](C(=O)N1CCN(C)CC1)[C@@H](C)c1ccc(NC(=O)[C@@H](NC(=O)C(F)(F)c2ccccc2C#N)C2CCCCC2)c(F)c1 [Compound 638] | –
10 to 100 | CCC(=O)N[C@H](C(=O)N1CCN(C)CC1)[C@H](C)c1ccc(NC(=O)[C@@H](NC(=O)c2ccnn2CC)[C@@H](C)OC2CCCCC2)c(F)c1 [Compound 389] | –
< 10 | CCn1nccc1C(=O)N[C@H](C(=O)Nc1ccc([C@H](C)[C@@H](NC(=O)CC2CC2)C(=O)N2CCN(Cc3ccccc3)CC2)cc1F)[C@H]1CC[C@H](C)CC1 [Compound 443] | –
10 to 100 | COc1ccc(C(F)(F)C(=O)N[C@H](C(=O)Nc2ccc([C@H](C)[C@@H](NC(=O)c3cnsc3)C(=O)N3CCN(C)CC3)cc2F)[C@H]2CC[C@H](C)CC2)cn1 [Compound 622] | –
< 10 | CCC(=O)N[C@@H](C(=O)N1CCN(C)C[C@H]1C)[C@@H](C)c1ccc(NC(=O)[C@@H](NC(=O)c2nonc2CC)[C@H]2CC[C@H](C)CC2)c(F)c1 [Compound 457] | –
– | CCC(=O)N[C@@H](C(=O)N1CCN(C)CC1)[C@@H](C)c1ccc(NC(=O)[C@@H](NC(=O)c2csc3cncnc23)C2CCCCC2)c(F)c1 [Compound 754] | X2b (compounds were evaluated up to 1 uM and inhibited activity at 1 uM by less than 20%)
10 to 100 | CCC(=O)N[C@@H](C(=O)N1CCOCC1)[C@@H](C)c1ccc(NC(=O)[C@@H](NC(=O)c2ccnn2CC)C2CCCCCC2)c(F)c1 [Compound 351] | –
100 to 10000 | CCC(=O)N[C@@H](C(=O)N1CCN(C)CC1)[C@@H](C)c1ccc(NC(=O)[C@@H](NC(=O)C(F)(F)c2cccc(C)c2)C2CCCCC2)c(F)c1 [Compound 684] | –
10 to 100 | CCn1nccc1C(=O)N[C@H](C(=O)Nc1ccc([C@H](C)[C@@H](NC(=O)c2cnns2)C(=O)N2CCN(CCO)CC2)cc1F)[C@H]1CC[C@H](C)CC1 [Compound 428] | –
100 to 10000 | CCC(=O)N[C@@H](C(=O)N1CCN(C)CC1)[C@@H](C)c1ccc(NC(=O)[C@@H](NC(=O)C(F)(F)c2cccc(C#N)c2)C2CCOCC2)c(F)c1 [Compound 674] | –
< 10 | COc1cncc(C(F)(F)C(=O)N[C@H](C(=O)Nc2ccc([C@H](C)[C@@H](NC(=O)c3cnns3)C(=O)N3CCN(C)CC3)cc2F)[C@H]2CC[C@H](C)CC2)c1 [Compound 400] | –
< 10 | CC(C)n1nccc1C(=O)N[C@H](C(=O)Nc1ccc([C@H](C)[C@@H](NC(=O)c2cnns2)C(=O)N2CCN(C)CC2)cc1F)C1CCCCCC1 [Compound 332] | –
< 10 | CCn1nnnc1C(=O)N[C@H](C(=O)Nc1ccc([C@H](C)[C@@H](NC(=O)N(C)C2CC2)C(=O)N2CCN(C)[C@H](C)C2)cc1F)[C@H]1CC[C@H](C)CC1 [Compound 604] | –
